Source: ChEMBL document CHEMBL4482317, “Phosphatidylcholine transfer protein inhibitors” (2017)
pIC50: −log10 of the molar value. Activity calls are given as the source filed them. No cut-off for these calls is given here.

Columns and labels:
[1] = target: T1, Phosphatidylcholine transfer protein (Homo sapiens) (UniProt Q9UKL6); assay: Inhibition of PC-TP in human hepatocytes assessed as enhancement of insulin signaling by measuring p-S6K T389 levels at 0.05 to 0.1 uM incubated for 60 mins by immunoblot analysis; format: cell-based
T1 sequence (whole entry): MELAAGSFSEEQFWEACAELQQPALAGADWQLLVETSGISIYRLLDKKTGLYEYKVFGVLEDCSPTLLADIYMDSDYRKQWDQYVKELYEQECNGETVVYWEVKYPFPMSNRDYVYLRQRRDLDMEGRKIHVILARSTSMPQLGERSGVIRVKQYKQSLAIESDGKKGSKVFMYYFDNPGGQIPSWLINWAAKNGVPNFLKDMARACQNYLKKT

[2] = target: T1, Phosphatidylcholine transfer protein (Homo sapiens); assay: Inhibition of PC-TP in human hepatocytes assessed as enhancement of insulin signaling by measuring p-AKT S473 levels at 0.05 to 0.1 uM incubated for 60 mins by immunoblot analysis; format: cell-based
[3] = target: T1, Phosphatidylcholine transfer protein (Homo sapiens); assay: Inhibition of PC-TP in human hepatocytes assessed as enhancement of insulin signaling by measuring p-GSK-3beta S9 levels at 0.05 to 0.1 uM incubated for 60 mins by immunoblot analysis; format: cell-based
[4] = target: T1, Phosphatidylcholine transfer protein (Homo sapiens); assay: Inhibition of PC-TP in human hepatocytes assessed as enhancement of insulin signaling by measuring p-AMPK-alpha T172 levels at 0.05 to 0.1 uM incubated for 60 mins by immunoblot analysis; format: cell-based
[5] = target: T2, Phosphatidylcholine transfer protein (Homo sapiens, UniProt Q9UKL6); assay: Inhibition of N-terminal His-tagged human PC-TP expressed in Escherichia coli using NBD-PC and donor and acceptor small unilamellar vesicles by fluorescence quench assay
T2 sequence (Q9UKL6 whole entry): T1 sequence (whole entry)

[6] = target: T1, Phosphatidylcholine transfer protein (Homo sapiens); assay: Binding affinity to N-terminal His-tagged human PC-TP expressed in Escherichia coli at 5 to 75 uM in presence of TCNQ by fluorescent pyrene-labeled phosphatidylcholine based displacement assay
[7] = target: T1, Phosphatidylcholine transfer protein (Homo sapiens); assay: Binding affinity to N-terminal His-tagged human PC-TP expressed in Escherichia coli assessed as relative binding constant K(rel) at 5 to 75 uM in presence of TCNQ by fluorescent pyrene-labeled phosphatidylcholine based displacement assay relative to control

Row | SMILES | inhibition [1] | inhibition [2] | inhibition [3] | inhibition [4] | pIC50 [5] | Activity [6] | Ratio [7]
1 | O=C(Nc1cc(Cl)cc(Cl)c1)C(Sc1cccc[n+]1[O-])c1ccccc1 (stereo unspecified) | Active | Active | Active | Active | – | – | –
2 | Cc1ccc(NC(=O)C(Sc2cccc[n+]2[O-])c2ccccc2)cc1Cl (stereo unspecified) | – | – | – | – | 4.00 | – | –
3 | Cc1cc(C)nc(NS(=O)(=O)c2ccc(NC(=O)NC(=O)c3ccc(Cl)cc3Cl)cc2)n1 | Active | Active | Active | Active | – | Dose-dependent effect | 1.1
